In patent publication US5312815A, “Fungicidal (+)-2-(2,4-difluorophenyl)-3-methyl-1-(1H-1,2,4-triazol-1-yl)3-(6-(1H-1, 2,4-triazol-1-yl)pyridazin-3-ylthio) butan-2-ol” (Roussel Morishita Co., Ltd., priority 1992, dated 1994):
In brackets after ≈: the same amount, converted by molar mass.

Key:
[1] = Plasma level in dogs (HPLC); assay type: in vivo, beagles (dogs); conditions: dog; for concentration at 0.5 h / concentration at 1 h / concentration at 2 h / concentration at 3 h / concentration at 5 h / concentration at 8 h / concentration at 24 h: plasma
Experimental: Two beagles per group each received an oral preparation of an inclusion complex composed of the compound of Example 1 and maltosyl-β-cyclodextrin (G2 -β-CyD) at a dose of 10 mg of the compound of Example 1 per kg-b.w. or an intravenous injection of the inclusion complex at a dose of 5 mg of the compound of Example 1 per kg-b.w. For comparison, a suspension of the compound of Example 1 in 0.5% methyl cellulose (MC) was orally administered at a dose of 10 mg per kg-b.w. A-blood sample was taken at 0.5, 1, 2, 3, 5, 8, and 24 hours after administration. After deproteination, the concentration of the compound of formula (I) in the sample was determined by high performance liquid chromatography (HPLC).

Aspergillus fumigatus = assay: In vitro antifungal activity, MIC on mycelium formation; assay type: cell-based; conditions: 37° C., 24 hours, Eagle's MEM with 10% fetal bovine serum
Experimental: (§1) Candida albicans (10^2 cells) or Aspergillus fumigatus (10^3 cells) was inoculated to 200 μl of an Eagle's minimum essential medium containing 10% fetal bovine serum and a test compound shown in Table 2 below at a dilution increasing by a factor of 2. The system was incubated at 37° C. for 24 hours in a 5 v/v% CO2 stream to obtain the minimum inhibitory concentration (MIC) on mycelium formation.

Candida albicans = assay: as above; assay type: cell-based; conditions: 37° C., 24 hours, Eagle's MEM with 10% fetal bovine serum
Experimental: as §1

[2] = system: Aspergillus fumigatus Kawasaki strain; assay: In vivo antifungal activity, Aspergillus fumigatus infected mice, oral; set-up: species or system mouse; conditions: 25 mg/kg p.o. twice a day, 4 days; for Mean Survival Days: 10 days observation; for Survival Number on Day 1 / Survival Number on Day 2 / Survival Number on Day 3 / Survival Number on Day 4 / Survival Number on Day 5 / Survival Number on Day 6 / Survival Number on Day 7 / Survival Number on Day 8 / Survival Number on Day 9 / Survival Number on Day 10: of 9 mice
Experimental: (§2) Asperoillus fumigatus Kawasaki strain having been cultured at 27° C. for 1 week was suspended in physiological saline, and the suspension (3×10^6 cells) was injected into the tail vein of a 4-week-old day male mouse (9 mice per group). Two days before the infection and on the day of the infection, 100 mg/kg of cyclophosphamide was intraperitoneally administered to each animal.
For comparison, compound (A) shown below which is described in EP 0421210A2, fluconazole (FCZ) and itraconazole (ITZ), were used as a comparative substance. Itraconazole was administered in a polyethylene glycol (400) solution. [drawing 4]

[3] = system: Candida albicans CAA-14 strain; assay: In vivo antifungal activity, Candida albicans infected mice, i.v.; set-up: species or system ICR male mouse; conditions: 5 mg/kg i.v. twice a day, 2 days, Example 1 as G2-β-CyD complex, FCZ in saline; for Mean Survival Days: 10 days observation; for Survival Number on Day 1 / Survival Number on Day 2 / Survival Number on Day 3 / Survival Number on Day 4 / Survival Number on Day 5 / Survival Number on Day 6 / Survival Number on Day 7 / Survival Number on Day 8 / Survival Number on Day 9 / Survival Number on Day 10: of 9 mice
Experimental: Candida albicans CAA-14 strain having been cultured at 30° C. for 24 hours was suspended in physiological saline, and the cell suspension (5×10^6 cells) was injected into the tail vein of a 5-week-old ICR male mouse (9 mice per group). Two days before the infection and on the day of the infection, 100 mg/kg of cyclophosphamide was intraperitoneally administered to each animal.
(§3) For comparison, fluconazole was used as a comparative substance.

[4] = system: Aspergillus fumigatus Kawasaki strain; assay: In vivo antifungal activity, Aspergillus fumigatus infected mice, i.v.; set-up: species or system mouse; conditions: 12.5 mg/kg i.v. twice a day, 4 days; for Mean Survival Days / Survival Number on Day 1 / Survival Number on Day 2 / Survival Number on Day 3: Example 1 as G2-β-CyD complex, FCZ in saline; for Mean Survival Days: 10 days observation
Experimental: as §2, with “Aspergillus fumigatus Kawasaki” for “Asperoillus fumigatus Kawasaki”, “and the cell suspension (3×10^6” for “and the suspension (3×10^6”
as §3

Acute toxicity in mice = assay type: in vivo, ICR male mouse; conditions: 1000 mg/kg oral, in 0.5% MC, 5 mice per group, 7 days
[5] = Toxicity in maintained administration in rats; assay type: in vivo, Crj:CD male rat; conditions: 100 or 300 mg/kg once a day, 2 weeks, in 0.5% MC
Experimental: A 6-week-old Crj:CD male rat (6 rats per group) was maintained on the compound of Example 1 or fluconazole suspended in 0.5% MC at a dose of 100 mg/kg or 300 mg/kg once a day for 2 consecutive weeks. Manifestations of toxicity were observed through observation of general signs, body weight measurement, biochemical examination of blood, organ weight measurements, and postmortem examinations.

[6] = iv, 5 mg/kg, G2-β-CyD inclusion complex
[7] = po, 10 mg/kg, G2-β-CyD inclusion complex
[8] = po, 10 mg/kg, suspension in 0.5% MC

Compound: CC(C)(Sc1ccc(-n2cncn2)nn1)C(O)(Cn1cncn1)c1ccc(F)cc1F (single isomer, unassigned; (+)) [Example 1, (+)-2-(2,4-difluorophenyl)-3-methyl-1-(1H-1,2,4-triazol-1-yl)-3-(6-(1H-1,2,4-triazol-1-yl)pyridazin-3-ylthio)butan-2-ol]
- absorption from the gastrointestinal tract ([1]; p.o., inclusion complex with cyclodextrin derivative vs MC suspension): markedly increased absorption from the gastrointestinal tract
- concentration at 0.5 h [1, 6]: 4100 ng/mL
- concentration at 1 h [1, 6]: 3400 ng/mL
- concentration at 2 h [1, 6]: 2800 ng/mL
- concentration at 3 h [1, 6]: 2000 ng/mL
- concentration at 5 h [1, 6]: 1700 ng/mL
- concentration at 8 h [1, 6]: 1300 ng/mL
- concentration at 24 h [1, 6]: 300 ng/mL
- concentration at 0.5 h [1, 7]: 2500 ng/mL
- concentration at 1 h [1, 7]: 2800 ng/mL
- concentration at 2 h [1, 7]: 2900 ng/mL
- concentration at 3 h [1, 7]: 2600 ng/mL
- concentration at 5 h [1, 7]: 2500 ng/mL
- concentration at 8 h [1, 7]: 2200 ng/mL
- concentration at 24 h [1, 7]: 700 ng/mL
- concentration at 0.5 h [1, 8]: 300 ng/mL
- concentration at 1 h [1, 8]: 300 ng/mL
- concentration at 2 h [1, 8]: 300 ng/mL
- concentration at 3 h [1, 8]: 200 ng/mL
- concentration at 5 h [1, 8]: 400 ng/mL
- concentration at 8 h [1, 8]: 300 ng/mL
- concentration at 24 h [1, 8]: 200 ng/mL
- MIC on Mycelium Formation, A. fumigatus (Aspergillus fumigatus): 3.13 µg/mL (≈ 7.04 µM)
- MIC on Mycelium Formation, C. albicans (Candida albicans): 0.05 µg/mL (≈ 0.112 µM)
- Mean Survival Days ([2]; G2-β-CyD inclusion complex): > 10 days
- Mean Survival Days ([2]; in 0.5% MC (ITZ: in PEG 400)): 5.9 days
- Survival Number on Day 1 ([2]; G2-β-CyD inclusion complex): 9
- Survival Number on Day 2 ([2]; G2-β-CyD inclusion complex): 9
- Survival Number on Day 3 ([2]; G2-β-CyD inclusion complex): 9
- Survival Number on Day 4 ([2]; G2-β-CyD inclusion complex): 9
- Survival Number on Day 5 ([2]; G2-β-CyD inclusion complex): 9
- Survival Number on Day 6 ([2]; G2-β-CyD inclusion complex): 9
- Survival Number on Day 7 ([2]; G2-β-CyD inclusion complex): 9
- Survival Number on Day 8 ([2]; G2-β-CyD inclusion complex): 9
- Survival Number on Day 9 ([2]; G2-β-CyD inclusion complex): 9
- Survival Number on Day 10 ([2]; G2-β-CyD inclusion complex): 9
- Survival Number on Day 5 ([2]; in 0.5% MC): 5
- Survival Number on Day 6 ([2]; in 0.5% MC): 4
- Survival Number on Day 7 ([2]; in 0.5% MC): 4
- Survival Number on Day 8 ([2]; in 0.5% MC): 2
- Survival Number on Day 9 ([2]; in 0.5% MC): 2
- Survival Number on Day 10 ([2]; in 0.5% MC): 2
- Survival Number on Day 1 ([2]; in 0.5% MC (ITZ: in PEG 400)): 9
- Survival Number on Day 2 ([2]; in 0.5% MC (ITZ: in PEG 400)): 9
- Survival Number on Day 3 ([2]; in 0.5% MC (ITZ: in PEG 400)): 9
- Survival Number on Day 4 ([2]; in 0.5% MC (ITZ: in PEG 400)): 5
- Mean Survival Days [3]: > 10.0 days
- Survival Number on Day 1 [3]: 9
- Survival Number on Day 2 [3]: 9
- Survival Number on Day 3 [3]: 9
- Survival Number on Day 4 [3]: 9
- Survival Number on Day 5 [3]: 9
- Survival Number on Day 6 [3]: 9
- Survival Number on Day 7 [3]: 9
- Survival Number on Day 8 [3]: 9
- Survival Number on Day 9 [3]: 9
- Survival Number on Day 10 [3]: 9
- Mean Survival Days [4]: > 9.0 days
- Survival Number on Day 1 ([4]; of 9 mice): 9
- Survival Number on Day 2 ([4]; of 9 mice): 9
- Survival Number on Day 3 ([4]; of 9 mice): 9
- Survival Number on Day 4 ([4]; of 9 mice, G2-β-CyD complex): 9
- Survival Number on Day 5 ([4]; of 9 mice, G2-β-CyD complex): 8
- Survival Number on Day 6 ([4]; of 9 mice, G2-β-CyD complex): 8
- Survival Number on Day 7 ([4]; of 9 mice, G2-β-CyD complex): 8
- Survival Number on Day 8 ([4]; of 9 mice, G2-β-CyD complex): 7
- Survival Number on Day 9 ([4]; of 9 mice, G2-β-CyD complex): 7
- Survival Number on Day 10 ([4]; of 9 mice, G2-β-CyD complex): 7
- life or death, acute toxicity (Acute toxicity in mice): No case of death

Compound: CC(C)(Sc1ccc(-n2cncn2)nn1)C(O)(Cn1cncn1)c1ccc(F)cc1F (single isomer, unassigned; (-)) [Reference Example 12, (-)-2-(2,4-difluorophenyl)-3-methyl-1-(1H-1,2,4-triazol-1-yl)-3-(6-(1H-1,2,4-triazol-1-yl)-pyridazin-3-ylthio)butan-2-ol, reference compound]
- MIC on Mycelium Formation, A. fumigatus (Aspergillus fumigatus): 100 µg/mL (≈ 225 µM)
- MIC on Mycelium Formation, C. albicans (Candida albicans): 1.56 µg/mL (≈ 3.51 µM)

Compound: OC(Cn1cncn1)(Cn1cncn1)c1ccc(F)cc1F [FCZ, fluconazole, reference compound]
- Mean Survival Days ([2]; in 0.5% MC (ITZ: in PEG 400)): 2.0 days
- Survival Number on Day 1 ([2]; in 0.5% MC (ITZ: in PEG 400)): 9
- Survival Number on Day 2 ([2]; in 0.5% MC (ITZ: in PEG 400)): 9
- Survival Number on Day 3 ([2]; in 0.5% MC (ITZ: in PEG 400)): 0
- Mean Survival Days [3]: 6.3 days
- Survival Number on Day 1 [3]: 9
- Survival Number on Day 2 [3]: 9
- Survival Number on Day 3 [3]: 8
- Survival Number on Day 4 [3]: 8
- Survival Number on Day 5 [3]: 8
- Survival Number on Day 6 [3]: 6
- Survival Number on Day 7 [3]: 3
- Survival Number on Day 8 [3]: 2
- Survival Number on Day 9 [3]: 2
- Survival Number on Day 10 [3]: 1
- Mean Survival Days [4]: 2.0 days
- Survival Number on Day 1 ([4]; of 9 mice): 9
- Survival Number on Day 2 ([4]; of 9 mice): 9
- Survival Number on Day 3 ([4]; of 9 mice): 0
- manifestations of toxicity [5]: production of hepatomegaly and enlargement of the suprarenalcapsules, with the degree thereof depending on dosage

Compound: CCC(C)n1ncn(-c2ccc(N3CCN(c4ccc(OCC5COC(Cn6cncn6)(c6ccc(Cl)cc6Cl)O5)cc4)CC3)cc2)c1=O (stereo not drawn) [ITZ, itraconazole, reference compound]
- Mean Survival Days ([2]; in 0.5% MC (ITZ: in PEG 400)): 2.1 days
- Survival Number on Day 1 ([2]; in 0.5% MC (ITZ: in PEG 400)): 9
- Survival Number on Day 2 ([2]; in 0.5% MC (ITZ: in PEG 400)): 9
- Survival Number on Day 3 ([2]; in 0.5% MC (ITZ: in PEG 400)): 9
- Survival Number on Day 4 ([2]; in 0.5% MC (ITZ: in PEG 400)): 1

Compound: Cc1nnc(SC(C)C(O)(Cn2cncn2)c2ccc(F)cc2F)s1 (stereo not drawn) [compound (A), reference compound]
- Mean Survival Days ([2]; in 0.5% MC (ITZ: in PEG 400)): 2.3 days
- Survival Number on Day 1 ([2]; in 0.5% MC (ITZ: in PEG 400)): 9
- Survival Number on Day 2 ([2]; in 0.5% MC (ITZ: in PEG 400)): 9
- Survival Number on Day 3 ([2]; in 0.5% MC (ITZ: in PEG 400)): 3
- Survival Number on Day 4 ([2]; in 0.5% MC (ITZ: in PEG 400)): 0
- life or death, acute toxicity (Acute toxicity in mice): all of the mice died
